The values below come from PMC12670160, “A drug-repurposing screen of FDA- and EMA-approved drugs identifies two NF-κB inhibitors active against eumycetoma” (Journal of Antimicrobial Chemotherapy, 2025).

Values after ≈ are worked out from the molar mass of the structure shown. “Also recorded” adds a separate entry of the source. Counter-ions that a name gives are not always drawn.

One data set deals with thioredoxin reductase. Also noted: method as in PMID 39816643. As to conditions: cited from earlier work.
Data set [1] concerns itraconazole-susceptible and itraconazole-resistant Aspergillus fumigatus. Also on record: method as in PMID 37037064. The following applies: cited from earlier work.
Data set [2] concerns M. mycetomatis mouse model. Also on record: method as in PMID 26150103. The following applies: cited from earlier work.
In data set [3] the test system is M. mycetomatis strain I1. Put plainly: IC50 and MIC determination, CellTiter-Glo, strain I1. The class given is cell-based, Madurella mycetomatis. The following applies: Madurella mycetomatis, I1.
Data set [4] relates to M. mycetomatis strain mm55. Put plainly: IC50 and MIC determination, CellTiter-Glo, strain mm55. As to conditions: Madurella mycetomatis; for IC50: concentration inhibiting 50% of fungal hyphae growth; for MIC: concentration with complete growth inhibition. Type of data set: cell-based, Madurella mycetomatis. (In general: ATP-based viability assays read luminescence as a measure of living cells.)

Data set [5] concerns M. mycetomatis. Put plainly: In vitro susceptibility, averages over M. mycetomatis isolates (average metabolic activity at 2 µM, mean MIC). Type of data set: cell-based. As to conditions: Madurella mycetomatis, 96 h, 4 days at 37°C, CellTiter-Glo, average of 3 isolates, 20% or below = inhibition.
Data set [6] relates to M. mycetomatis-infected G. mellonella larvae. The following applies: M. mycetomatis-infected G. mellonella larvae; cited from earlier work.
For data set [7], the system named is M. mycetomatis. Also on record: method as in PMID 35398930, PMID 15793113, PMID 36005544, PMID 34181477, PMID 22964246. As to conditions: against M. mycetomatis; cited from earlier work.
In a further data set the test system is eumycetoma. As to conditions: cited from earlier work.
Data set [8] relates to M. mycetomatis strain P1. As to the kind of experiment: IC50 and MIC determination, CellTiter-Glo, strain P1. As to conditions: Madurella mycetomatis, P1. Type of data set: cell-based, Madurella mycetomatis.
The subject of another data set is Rhodnius prolixus. Also noted: method as in PMID 30233391. As to conditions: insect vector Rhodnius prolixus; cited from earlier work.
In data set [9] the test system is M. mycetomatis MM55-infected G. mellonella larvae. As to the kind of experiment: Therapeutic efficacy in M. mycetomatis-infected G. mellonella larvae (survival, log-rank). The class given is in vivo, Galleria mellonella. As to conditions: 20 µL of 20 µM at 4, 28 and 52 h post infection; 10 days. As to the method: (§1) For in vivo experiments, sixth-week instar G. mellonella larvae were purchased from Blue-Lagoon, Maassluis, The Netherlands. The larvae were raised and kept in the dark at room temperature. Larvae without any discoloration and weighing around 500 mg were selected for experiments.
The wet weight was determined and 10 mL of PBS per gram of mycelia was added. The suspension was then sonicated for 2 min to achieve a particle size of 10 µm. The fungal suspension (4 mg/40 µL) was injected into the last left pro-leg of a healthy G. mellonella larva with an insulin 29G U-100 needle to reach a final inoculum of 4 mg/larva. Larvae were placed in Petri dishes containing Whatman paper in a 37°C incubator.
A control group was also included in which M. mycetomatis-infected larvae were treated with PBS or with 1 mg/kg amphotericin B (Fungizone, Bristol Myers Squibb, Utrecht, The Netherlands). […] The treatment was repeated at 28 h post infection and 52 h post infection via different prolegs. The infection was monitored for 10 days.
To compare the survival rates between PBS treatment control and the different experimental groups a log-rank test was performed. All data were processed and performed in GraphPad Prism 10.

In data set [10] the test system is vancomycin-resistant Staphylococcus aureus strains. As to conditions: cited from earlier work.
Data set [11] concerns healthy uninfected G. mellonella larvae. The following applies: 20 µL of 20 µM injected; for Toxicity in G. mellonella larvae at 20 µM: 10 day observation, toxic if more than 20% of larvae died; for larval survival: 10 days, uninfected larvae. How it is done: as §1
To determine the toxicity, 15 healthy uninfected larvae were injected with 20 µL of 20 µM compound as previously described.[16] […] As a control, a separate group of larvae were injected with 20 µL of PBS. Larvae were housed in Petri dishes with Whatman paper at 37°C in the dark. Survival was monitored for 10 days.

The test system of data set [12] is primary human neutrophils exposed to C. albicans. Also noted: method as in PMID 19609651. As to conditions: cited from earlier work.
Data set [13] has as its system M. mycetomatis strain P1. Put plainly: microbe, parasite or virus in culture. Also noted: species or system Madurella mycetomatis hyphae. The following applies: Madurella mycetomatis, P1, 96 h. As to the method:
(§2) The Oncode Drug Repurposing library was based on the drug repurposing library from the Drug Repurposing Hub of the Broad Institute and recreated by the Oncode institute.[13] The library contained 5631 drugs.[18] A copy of this library was plated out on 384-well plates with lids (cat no. 655180; Greiner Bio-One, Alphen aan den Rijn, The Netherlands) by the Leiden University Medical Center. Each well of the 384-well plates contained 0.6 µL of a 200 µM stock concentration of compound, resulting in a final concentration of 2 µM when the fungus was added. From the previous libraries we screened, we noted that there are several compounds able to inhibit M. mycetomatis at this concentration in vitro. Furthermore, this concentration could also be reached in the G. mellonella larvae.[8],[11] The prepared 384-well plates were transferred on dry ice to the Erasmus MC and stored at −80°C until they were screened. We created a second library from the original library, containing only those 29 compounds that were active in the first screen. […] To determine the in vitro susceptibility of M. mycetomatis to the compounds, a hyphal inoculum was prepared as described elsewhere.[19] This M. mycetomatis hyphal suspension (60 µL) was added to each of the wells in the 384-well plate, leading to a final testing concentration of 2 µM per compound. Each plate also contained a growth control (60 µL of M. mycetomatis hyphal suspension, plus 0.6 µL of DMSO) and a negative control (60 µL of culture medium, plus 0.6 µL of DMSO). Plates were then incubated for 4 days at 37°C, after which 30 µL of CellTiter-Glo 3D Cell Viability reagent was added to every well.[19] After 25 min of incubation at room temperature, the luminescence was measured with a CytoFluor Series 4000 luminometer (PerSeptive Biosystems, Framingham, MA, USA). To determine the metabolic activity, the following formula was used: For each of these 29 active compounds, the IC50 and MIC were determined for M. mycetomatis strains MM55, P1 and I1 (Table 1 and Table S1).

Data set [14] deals with M. mycetomatis strain mm55. Put plainly: microbe, parasite or virus in culture. Also noted: species or system Madurella mycetomatis hyphae. The following applies: Madurella mycetomatis, MM55, 96 h. How it is done:
as §2

Data set [15] relates to M. mycetomatis strain I1. Put plainly: microbe, parasite or virus in culture. Also noted: species or system Madurella mycetomatis hyphae. The following applies: Madurella mycetomatis, I1, 96 h. How it is done: as §2
Data set [16] relates to M. mycetomatis. Also noted: method as in PMID 34209118. The following applies: in vitro; cited from earlier work.

Consider `CC(=O)OC[C@H]1O[C@@H]([S-])[C@H](OC(C)=O)[C@@H](OC(C)=O)[C@@H]1OC(C)=O.CCP(CC)CC.[Au+]` [auranofin], for which the thioredoxin reductase inhibition entry in the data set with thioredoxin reductase is listed as “able to inhibit thioredoxin reductase”. Also, the Aspergillus biofilm formation result in data set [1] was “inhibitory activity”. Besides, the antifungal activity entry in data set [1] (itraconazole-susceptible and itraconazole-resistant A. fumigatus) is “potent antifungal activity”.

Usually IC50 stands for the concentration that inhibits the measured activity by half. Broadly, the MIC50 is an inhibitory concentration at the 50% level, which refers to growth in some studies and to a panel of isolates in others. Regarding `CCC(C)n1ncn(-c2ccc(N3CCN(c4ccc(OCC5COC(Cn6cncn6)(c6ccc(Cl)cc6Cl)O5)cc4)CC3)cc2)c1=O` (stereo not drawn) [Itraconazole hydrochloride], in data set [2], the “activity in M. mycetomatis mouse model” value is on record as “lack of activity”. Also, the figures for the concentration for half-maximal inhibition (IC50) (with M. mycetomatis strain I1 [3]; in [4]; in the data set on M. mycetomatis strain P1 [8]) were 0.78 µM, 1.58 µM and 0.84 µM, respectively. Besides, the MIC was found to be 1 µM in the data set with M. mycetomatis strain I1 [3], 2 µM in data set [4] and 2 µM against M. mycetomatis strain P1 [8]. Further, the activity at 2 µM in the data set on M. mycetomatis [5] is 6.1%. For the same compound, in data set [6], the larval survival result is on record as “No prolonged larval survival”. For the same compound, the MIC50 in the data set on M. mycetomatis [7] was 0.06 µg/mL. For the same compound, the “lesion size or β-glucan levels” value in the data set on eumycetoma (400 mg/day, first 6 months of treatment) is given as “no reduction”. In addition, the cure rate in the data set on eumycetoma (itraconazole combined with surgery, clinical trial setting) is 80%.

`O=C(Nc1cc(C(F)(F)F)cc(C(F)(F)F)c1)c1cc(Cl)ccc1O` [IKK2 inhibitor V (IMD-0354), IMD-0354]: in the data set with M. mycetomatis strain I1 [3], inhibition was half-maximal at 1.68 µM (IC50) and the MIC was 2 µM (≈ 0.767 µg/mL). Besides, in data set [4], the half-maximal inhibitory concentration (IC50) stood at 1.76 µM and the MIC amounted to 2 µM (≈ 0.767 µg/mL). Further, in the data set with Rhodnius prolixus, the “expression of antimicrobial peptides” value is on record as “decreased” and the “mortality after Trypanosoma cruzi infection” value is recorded as “reduced mortality”. For the same compound, the activity at 2 µM in the data set on M. mycetomatis [5] was 2.3%. Also, the “Survival of M. mycetomatis-infected larvae versus PBS” value in data set [9] is “prolonged the survival; also recorded: prolonged larval survival”. Further, the MIC in data set [10] (Gram-positive vancomycin-resistant Staphylococcus aureus strains) is 0.06 µg/mL (≈ 0.156 µM). Moreover, in [10] (vancomycin-resistant staphylococci), the biofilm formation entry is “able to inhibit biofilm formation”. In the data set with M. mycetomatis strain P1 [8], this compound came in with a 50% inhibitory concentration (IC50) of 0.17 µM and an MIC of 0.25 µM (≈ 0.0959 µg/mL). In addition, in data set [11], the “Toxicity in G. mellonella larvae at 20 µM” value is listed as “not toxic” and the larval survival result is listed as “above 80%”.

In the data set with M. mycetomatis strain I1 [3], `CC(C)(C)c1ccc(S(=O)(=O)/C=C/C#N)cc1` [bay117085] gave a half-maximal inhibitory concentration (IC50) of 0.72 µM and an MIC of 1 µM (≈ 0.249 µg/mL). In data set [4], this compound registered a concentration for half-maximal inhibition (IC50) of 1.51 µM and an MIC of 2 µM (≈ 0.499 µg/mL). In addition, in the data set with thioredoxin reductase, the thioredoxin reductase inhibition result is “able to inhibit thioredoxin reductase”. The compound also had an activity at 2 µM in the data set with M. mycetomatis [5] of 4%. Further, the “Survival of M. mycetomatis-infected larvae versus PBS” value in [9] was “prolonged the survival; also recorded: prolonged larval survival”. In addition, in the data set on M. mycetomatis strain P1 [8], the IC50 stood at 0.85 µM and the MIC was 2 µM (≈ 0.499 µg/mL). In data set [11], the “Toxicity in G. mellonella larvae at 20 µM” value is recorded as “not toxic” and the larval survival entry is recorded as “above 80%”.

For the compound `Cc1ccc(S(=O)(=O)/C=C/C#N)cc1` [bay117082], in [12], the “chemotaxis, phagocytosis and killing activity of neutrophils” value is reported as “able to reduce”.

As to `Cc1c(N)nc([C@H](CC(N)=O)NC[C@H](N)C(N)=O)nc1C(=O)N[C@H](C(=O)N[C@H](C)[C@@H](O)[C@H](C)C(=O)N[C@H](C(=O)NCCc1nc(-c2nc(C(=O)NCCCNCCCCN)cs2)cs1)[C@@H](C)O)[C@@H](O[C@@H]1O[C@@H](CO)[C@@H](O)[C@H](O)[C@@H]1O[C@@H]1O[C@H](CO)[C@@H](O)[C@H](OC(N)=O)[C@@H]1O)c1cnc[nH]1` [ONC0002990, bleomycetin], the half-maximal inhibitory concentration (IC50) was less than 0.03 µM in the data set with M. mycetomatis strain P1 [13], 0.21 µM in data set [14] and 0.2 µM in the data set on M. mycetomatis strain I1 [15]. For the same compound, the MIC in the data set with M. mycetomatis strain P1 [13] is less than 0.03 µM; in data set [14], 0.5 µM (≈ 0.72 µg/mL); against M. mycetomatis strain I1 [15], 0.5 µM (≈ 0.72 µg/mL).

On to `O=C(Nc1ccc([N+](=O)[O-])cc1Cl)c1cc(Cl)ccc1O` [niclosamide], for which the “activity against M. mycetomatis” value with M. mycetomatis [16] is recorded as “active”.
